13 compounds from patent publication US20100004250A1, “PTERIDINE DERIVATIVES AS POLO-LIKE KINASE INHIBITORS USEFUL IN THE TREATMENT OF CANCER” (CHROMA THERAPEUTICS LTD., priority 2006, published 2010) can be followed below.

Assay [1] deals with HCT 116 cell line. The assay can be described thus: Cell inhibition assay (WST-1 proliferation). The format is cell-based. Particulars: Homo sapiens, 120 hrs incubation, read-out: Inhibitor Activity vs HCT 116 cell line. As for the experimental part: Cells were seeded in 96W tissue culture plates (1 well=30 mm^2) at a density of 500 cells per well in 50 μl of the appropriate culture medium (see below). 24 hrs later 50 μl of the compound prepared in the same medium was added as 4 fold dilutions to give final concentrations in the range 0.15 nM-2500 nM (n=6 for each concentration). The plates were then incubated at 37° C., 5% CO2 for 120 hrs. Cell proliferation was assessed using WST-1 (a metabolic indicator dye, Roche Cat no. 1 644 807) according to the manufacturers instructions. The results were calculated as percentage of vehicle response and IC50 values represent the concentration of compound that inhibited the vehicle response by 50%.
HCT-116 Culture Medium—Dulbeccos MEM (Sigma D6546) plus 10% heat inactivated fetal calf serum (Hyclone SH30071 Thermo Fischer Scientific) containing 2 mM Glutamine (Sigma cat no G-7513) and 50 U/ml Penicillin and Streptomycin Sulphate (Sigma Cat no P-0781).

For assay [2], the target named is T1, PLK1 (Homo sapiens, UniProt P53350).
T1 construct: purchased Invitrogen (Paisley, UK), assay service
The assay can be described thus: PLK1 enzyme assay (Z'-LYTE, Invitrogen). The format is biochemical. Particulars: ATP at or close to Km, 60 minute kinase reaction; read-out: Inhibitor Activity vs PLK1. As to the method:
The ability of compounds to inhibit PLK-1 kinase activity was measured in an assay performed by Invitrogen (Paisley, UK). The Z′-LYTE™ biochemical assay employs a fluorescence-based, coupled-enzyme format and is based on the differential sensitivity of phosphorylated and non-phosphorylated peptides to proteolytic cleavage. The peptide substrate is labelled with two fluorophores—one at each end—that make up a FRET pair. In the primary reaction, the kinase transfers the gamma-phosphate of ATP to a single serine or threonine residue in a synthetic FRET-peptide. In the secondary reaction, a site-specific protease recognizes and cleaves non-phosphorylated FRET-peptides. Phosphorylation of FRET-peptides suppresses cleavage by the Development Reagent. Cleavage disrupts FRET between the donor (i.e., coumarin) and acceptor (i.e., fluorescein) fluorophores on the FRET-peptide, whereas uncleaved, phosphorylated FRET-peptides maintain FRET. A […] method, which calculates the ratio (the Emission Ratio) of donor emission to acceptor emission after excitation of the donor fluorophore at 400 nm, is used to quantitate reaction progress.
The final 10 μl Kinase Reaction consists of 2.8-25.3 ng PLK1, 2 μM Ser/Thr 16 Peptide substrate and ATP in 50 mM HEPES pH 7.5, 0.01% BRIJ-35, 10 mM MgCl2, 1 mM EGTA. The assay is performed at an ATP concentration at, or close to, the Km. After the 60 minute Kinase Reaction incubation at room temperature, 5 μl of a 1:8 dilution of Development Reagent is added. The assay plate is incubated for a further 60 minutes at room temperature and read on a fluorescence plate reader.
Duplicate data points are generated from a ⅓ log dilution series of a stock solution of test compound in DMSO. Nine dilutions steps are made from a top concentration of 10 μM, and a “no compound” blank is included. Data is collected and analysed using XLfit software from IDBS. The dose response curve is curve fitted to model number 205 (sigmoidal dose-response model). From the curve generated, the concentration giving 50% inhibition is determined and reported.

Structures are written as SMILES.

T1 sequence (P53350 whole entry): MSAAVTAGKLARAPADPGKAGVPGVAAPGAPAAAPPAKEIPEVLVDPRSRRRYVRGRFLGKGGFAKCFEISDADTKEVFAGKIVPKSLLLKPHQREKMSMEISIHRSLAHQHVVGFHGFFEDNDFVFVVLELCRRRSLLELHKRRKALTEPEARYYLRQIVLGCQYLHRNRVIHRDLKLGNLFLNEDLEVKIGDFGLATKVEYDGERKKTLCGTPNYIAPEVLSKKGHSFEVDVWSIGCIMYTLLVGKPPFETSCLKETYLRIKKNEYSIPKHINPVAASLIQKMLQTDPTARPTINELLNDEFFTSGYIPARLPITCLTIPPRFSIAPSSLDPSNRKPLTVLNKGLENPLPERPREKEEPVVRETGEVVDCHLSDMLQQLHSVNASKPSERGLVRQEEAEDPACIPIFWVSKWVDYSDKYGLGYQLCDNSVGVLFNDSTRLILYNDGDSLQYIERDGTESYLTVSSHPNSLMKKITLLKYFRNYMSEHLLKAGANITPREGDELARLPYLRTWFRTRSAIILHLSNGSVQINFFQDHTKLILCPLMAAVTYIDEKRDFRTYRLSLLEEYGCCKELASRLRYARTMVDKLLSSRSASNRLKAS

For the compound `CC[C@@H]1C(=O)N(C)c2cnc(Nc3ccc(C(=O)NC4CCN(CCCC(=O)N[C@@H](C(=O)OC5CCCC5)C5CCCCC5)CC4)cc3OC)nc2N1C1CCCC1` [Example 5, Cyclopentyl (2R)-cyclohexyl [(4-{4-[(4-{[(7R)-8-cyclopentyl-7-ethyl-5-methyl-6-oxo-5,6,7,8-tetrahydropteridin-2-yl]amino}-3-methoxybenzoyl)amino]piperidin-1-yl}butanoyl)amino]acetate], the IC50 in assay [1] was more than 500 nM; in assay [2], 100 to 500 nM.

Consider `CC[C@@H]1C(=O)N(C)c2cnc(Nc3ccc(C(=O)NC4CCN(CCCCC(=O)N[C@@H](CC(C)C)C(=O)OC5CCCC5)CC4)cc3OC)nc2N1C1CCCC1` [Example 6, Cyclopentyl N-(5-{4-[(4-{[(7R)-8-cyclopentyl-7-ethyl-5-methyl-6-oxo-5,6,7,8-tetrahydropteridin-2-yl]amino}-3-methoxybenzoyl)amino]piperidin-1-yl}pentanoyl)-L-leucinate], for which the IC50 in assay [1] and in assay [2] was less than 100 nM throughout.

For the compound `CC[C@@H]1C(=O)N(C)c2cnc(Nc3ccc(C(=O)NC4CCN(CC(=O)N[C@@H](CC(C)C)C(=O)OC5CCCC5)CC4)cc3OC)nc2N1C1CCCC1` [Example 7, Cyclopentyl N-({4-[(4-{[(7R)-8-cyclopentyl-7-ethyl-5-methyl-6-oxo-5,6,7,8-tetrahydropteridin-2-yl]amino}-3-methoxybenzoyl)amino]piperidin-1-yl}acetyl)-L-leucinate], the IC50 is less than 100 nM in assay [1] and 100 to 500 nM in assay [2].

`CC[C@@H]1C(=O)N(C)c2cnc(Nc3ccc(C(=O)NC4CCN(CCNC(=O)N[C@@H](CC(C)C)C(=O)OC5CCCC5)CC4)cc3OC)nc2N1C1CCCC1` [Example 8, Cyclopentyl N-[(2-{4-[(4-{[(7R)-8-cyclopentyl-7-ethyl-5-methyl-6-oxo-5,6,7,8-tetrahydropteridin-2-yl]amino}-3-methoxybenzoyl)amino]piperidin-1-yl}ethyl)carbamoyl]-L-leucinate]: the IC50 in assay [1] and in assay [2] was less than 100 nM in each case.

As to `CC[C@@H]1C(=O)N(C)c2cnc(Nc3ccc(C(=O)NC4CCN(CCNC(=O)N[C@H](C(=O)OC5CCCC5)c5ccccc5)CC4)cc3OC)nc2N1C1CCCC1` [Example 9, Cyclopentyl (2S)-{[(2-{4-[(4-{[(7R)-8-cyclopentyl-7-ethyl-5-methyl-6-oxo-5,6,7,8-tetrahydropteridin-2-yl]amino}-3-methoxybenzoyl)amino]piperidin-1-yl}ethyl)carbamoyl]amino}(phenyl)acetate], the IC50 in assay [1] and in assay [2] was less than 100 nM in each case.

On to `CC[C@@H]1C(=O)N(C)c2cnc(Nc3ccc(C(=O)NC4CCN(CCNC(=O)N[C@H](C(=O)OC5CCCC5)C5CCCCC5)CC4)cc3OC)nc2N1C1CCCC1` [Example 10, Cyclopentyl (2S)-cyclohexyl{[(2-{4-[(4-{[(7R)-8-cyclopentyl-7-ethyl-5-methyl-6-oxo-5,6,7,8-tetrahydropteridin-2-yl]amino}-3-methoxybenzoyl)amino]piperidin-1-yl}ethyl)carbamoyl]amino}acetate], for which the IC50 in assay [1] was less than 100 nM; in assay [2], 100 to 500 nM.

Turning to `CC[C@@H]1C(=O)N(C)c2cnc(Nc3ccc(C(=O)NC4CCN(CCOC(=O)N[C@@H](CC(C)C)C(=O)OC5CCCC5)CC4)cc3OC)nc2N1C1CCCC1` [Example 11, Cyclopentyl N-[(2-{4-[(4-{[(7R)-8-cyclopentyl-7-ethyl-5-methyl-6-oxo-5,6,7,8-tetrahydropteridin-2-yl]amino}-3-methoxybenzoyl)amino]piperidin-1-yl}ethoxy)carbonyl]-L-leucinate], the IC50 in assay [1] and in assay [2] was less than 100 nM in each case.

Regarding `CC[C@@H]1C(=O)N(C)c2cnc(Nc3ccc(C(=O)Nc4ccc(CCCC(=O)N[C@@H](CC(C)C)C(=O)OC5CCCC5)cc4)cc3OC)nc2N1C1CCCC1` [Example 12, Cyclopentyl N-(4-{4-[(4-{[(7R)-8-cyclopentyl-7-ethyl-5-methyl-6-oxo-5,6,7,8-tetrahydropteridin-2-yl]amino}-3-methoxybenzoyl)amino]phenyl}butanoyl)-L-leucinate], the IC50 was less than 100 nM in assay [1] and 100 to 500 nM in assay [2].

On to `CC[C@@H]1C(=O)N(C)c2cnc(Nc3ccc(C(=O)NCCCC(=O)N[C@@H](CC(C)C)C(=O)OC4CCCC4)cc3OC)nc2N1C1CCCC1` [Example 13, Cyclopentyl N-{4-[(4-{[(7R)-8-cyclopentyl-7-ethyl-5-methyl-6-oxo-5,6,7,8-tetrahydropteridin-2-yl]amino}-3-methoxybenzoyl)amino]butanoyl}-L-leucinate], for which the IC50 in assay [1] and in assay [2] was 100 to 500 nM throughout.

Regarding `CC[C@@H]1C(=O)N(C)c2cnc(Nc3ccc(/C=C/CCCC(=O)N[C@@H](CC(C)C)C(=O)OC4CCCC4)cc3F)nc2N1C1CCCC1` [Example 14, Cyclopentyl N-[(5E)-6-(4-{[(7R)-8-cyclopentyl-7-ethyl-5-methyl-6-oxo-5,6,7,8-tetrahydropteridin-2-yl]amino}-3-fluorophenyl)hex-5-enoyl]-L-leucinate], the IC50 in assay [1] was more than 500 nM; in assay [2] it was 100 to 500 nM.

As to `CC[C@@H]1C(=O)N(C)c2cnc(Nc3ccc(CCCCCC(=O)N[C@@H](CC(C)C)C(=O)OC4CCCC4)cc3F)nc2N1C1CCCC1` [Example 15, Cyclopentyl N-[6-(4-{[(7R)-8-cyclopentyl-7-ethyl-5-methyl-6-oxo-5,6,7,8-tetrahydropteridin-2-yl]amino}-3-fluorophenyl)hexanoyl]-L-leucinate], the IC50 in assay [1] and in assay [2] was more than 500 nM each time.

In the case of `CC[C@@H]1C(=O)N(C)c2cnc(Nc3c(F)cc(/C=C/CCCC(=O)N[C@@H](CC(C)C)C(=O)OC4CCCC4)cc3F)nc2N1C1CCCC1` [Example 16, Cyclopentyl N-[(5E)-6-(4-{[(7R)-8-cyclopentyl-7-ethyl-5-methyl-6-oxo-5,6,7,8-tetrahydropteridin-2-yl]amino}-3,5-difluorophenyl)hex-5-enoyl]-L-leucinate], the IC50 was more than 500 nM in assay [1] and 100 to 500 nM in assay [2].

With `CC[C@@H]1C(=O)N(C)c2cnc(Nc3ccc(C(=O)N[C@H]4CC[C@@H](CCC(=O)N[C@@H](CC(C)C)C(=O)OC5CCCC5)CC4)cc3OC)nc2N1C1CCCC1` [Example 17, Cyclopentyl N-(3-{cis-4-[(4-{[(7R)-8-cyclopentyl-7-ethyl-5-methyl-6-oxo-5,6,7,8-tetrahydropteridin-2-yl]amino}-3-methoxybenzoyl)amino]cyclohexyl}propanoyl)-L-leucinate], the IC50 in assay [1] and in assay [2] was less than 100 nM in each case.
